Experimental data as given in PubChem BioAssay AID2060889 (Molecular Pharmacology Branch, DTP, NCI, 2025).

Test system: LG0567-F671-PDC complex spheroids viability
Experiment: Anticancer human tumor LG0567-F671-PDC patient-derived lung adenocarcinoma cell line growth inhibition [RAS]
Details: for IC50: curve of first compound; for viability, T/C: stronger effect = lower value
How it was run: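 Tumour cells grown as complex spheroids with HUVEC endothelial cells and mesenchymal stem cells, treated with RAS pathway inhibitor combinations. Each agent spans half-log steps from near clinical Cmax, or 10 microM where Cmax is unknown.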

[1] = second compound 0.000949 µM, first compound 0.0316 µM
[2] = second compound 0.000949 µM, first compound 0.1 µM
[3] = second compound 0.000949 µM, first compound 0.316 µM
[4] = second compound 0.000949 µM, first compound 1 µM
[5] = second compound 0.000949 µM, first compound 3.16 µM
[6] = second compound 0.000949 µM, first compound 10 µM
[7] = second compound 0.003 µM, first compound 0.0316 µM
[8] = second compound 0.003 µM, first compound 0.1 µM
[9] = second compound 0.003 µM, first compound 0.316 µM
[10] = second compound 0.003 µM, first compound 1 µM
[11] = second compound 0.003 µM, first compound 3.16 µM
[12] = second compound 0.003 µM, first compound 10 µM
[13] = second compound 0.00949 µM, first compound 0.0316 µM
[14] = second compound 0.00949 µM, first compound 0.1 µM
[15] = second compound 0.00949 µM, first compound 0.316 µM
[16] = second compound 0.00949 µM, first compound 1 µM
[17] = second compound 0.00949 µM, first compound 3.16 µM
[18] = second compound 0.00949 µM, first compound 10 µM
[19] = second compound 0.03 µM, first compound 0.0316 µM
[20] = second compound 0.03 µM, first compound 0.1 µM
[21] = second compound 0.03 µM, first compound 0.316 µM
[22] = second compound 0.03 µM, first compound 1 µM
[23] = second compound 0.03 µM, first compound 3.16 µM
[24] = second compound 0.03 µM, first compound 10 µM
[25] = second compound 0.0949 µM, first compound 0.0316 µM
[26] = second compound 0.0949 µM, first compound 0.1 µM
[27] = second compound 0.0949 µM, first compound 0.316 µM
[28] = second compound 0.0949 µM, first compound 1 µM
[29] = second compound 0.0949 µM, first compound 3.16 µM
[30] = second compound 0.0949 µM, first compound 10 µM
[31] = second compound 0.3 µM, first compound 0.0316 µM
[32] = second compound 0.3 µM, first compound 0.1 µM
[33] = second compound 0.3 µM, first compound 0.316 µM
[34] = second compound 0.3 µM, first compound 1 µM
[35] = second compound 0.3 µM, first compound 3.16 µM
[36] = second compound 0.3 µM, first compound 10 µM
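Further: spheroids exposed to compound for seven days before readout.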
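Wherever IC50 is given: luminescence signal used as a proxy for viable cells.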

CC(=O)OC12COC1CC(O)C1(C)C(=O)C(O)C3=C(C)C(OC(=O)C(O)C(NC(=O)OC(C)(C)C)c4ccccc4)CC(O)(C(OC(=O)c4ccccc4)C21)C3(C)C (stereo unspecified) + CCn1c(-c2cccnc2C(C)OC)c2c3cc(ccc31)N1CCOC(CC(NC(=O)C(C(C)C)N(C)C(=O)C3(F)CCN(C(=O)C#CC(C)(C)N(C)C)CC3)C(=O)N3CCCC(N3)C(=O)OCC(C)(C)C2)C1
IC50 (second compound 0.000949 µM): < 31.6 nM
IC50 (second compound 0.003 µM): < 31.6 nM
IC50 (second compound 0.00949 µM): < 31.6 nM
IC50 (second compound 0.03 µM): < 31.6 nM
IC50 (second compound 0.0949 µM): < 31.6 nM
IC50 (second compound 0.3 µM): < 31.6 nM
viability, T/C [1]: 12.9%
viability, T/C [2]: 10.5%
viability, T/C [3]: 11%
viability, T/C [4]: 11.9%
viability, T/C [5]: 11.6%
viability, T/C [6]: 8.54%
viability, T/C [7]: 13.3%
viability, T/C [8]: 11.5%
viability, T/C [9]: 11.2%
viability, T/C [10]: 11.5%
viability, T/C [11]: 11.5%
viability, T/C [12]: 9.41%
viability, T/C [13]: 11.1%
viability, T/C [14]: 10.2%
viability, T/C [15]: 12.1%
viability, T/C [16]: 10.1%
viability, T/C [17]: 11.2%
viability, T/C [18]: 8.58%
viability, T/C [19]: 10.2%
viability, T/C [20]: 10.9%
viability, T/C [21]: 10.7%
viability, T/C [22]: 9.38%
viability, T/C [23]: 10.1%
viability, T/C [24]: 7.46%
viability, T/C [25]: 8.76%
viability, T/C [26]: 7.61%
viability, T/C [27]: 8.1%
viability, T/C [28]: 9.57%
viability, T/C [29]: 8.69%
viability, T/C [30]: 6.64%
viability, T/C [31]: 7.24%
viability, T/C [32]: 6.04%
viability, T/C [33]: 6.63%
viability, T/C [34]: 6.97%
viability, T/C [35]: 7.51%
viability, T/C [36]: 5.29%

NC1c2ccccc2OC12CCN(c1cnc3c(N4CCCc5ncccc54)n[nH]c3n1)CC2 (stereo unspecified) + CCn1c(-c2cccnc2C(C)OC)c2c3cc(ccc31)N1CCOC(CC(NC(=O)C(C(C)C)N(C)C(=O)C3(F)CCN(C(=O)C#CC(C)(C)N(C)C)CC3)C(=O)N3CCCC(N3)C(=O)OCC(C)(C)C2)C1
IC50 (second compound 0.000949 µM): < 31.6 nM
IC50 (second compound 0.003 µM): < 31.6 nM
IC50 (second compound 0.00949 µM): < 31.6 nM
IC50 (second compound 0.03 µM): < 31.6 nM
IC50 (second compound 0.0949 µM): < 31.6 nM
IC50 (second compound 0.3 µM): < 31.6 nM
viability, T/C [1]: 4.75%
viability, T/C [2]: 4.54%
viability, T/C [3]: 2.82%
viability, T/C [4]: 2.6%
viability, T/C [5]: 3.24%
viability, T/C [6]: 2.18%
viability, T/C [7]: 5.7%
viability, T/C [8]: 4.2%
viability, T/C [9]: 3.08%
viability, T/C [10]: 2.79%
viability, T/C [11]: 2.89%
viability, T/C [12]: 3%
viability, T/C [13]: 6.21%
viability, T/C [14]: 3.69%
viability, T/C [15]: 3.15%
viability, T/C [16]: 2.2%
viability, T/C [17]: 1.99%
viability, T/C [18]: 1.74%
viability, T/C [19]: 4.82%
viability, T/C [20]: 4.27%
viability, T/C [21]: 2.5%
viability, T/C [22]: 1.95%
viability, T/C [23]: 1.88%
viability, T/C [24]: 2.47%
viability, T/C [25]: 4.25%
viability, T/C [26]: 3.02%
viability, T/C [27]: 2.73%
viability, T/C [28]: 1.84%
viability, T/C [29]: 1.66%
viability, T/C [30]: 1.44%
viability, T/C [31]: 3.31%
viability, T/C [32]: 2.55%
viability, T/C [33]: 1.71%
viability, T/C [34]: 1.65%
viability, T/C [35]: 1.27%
viability, T/C [36]: 2.62%

Nc1ccn(C2OC(CO)C(O)C2(F)F)c(=O)n1 (stereo unspecified) + CCn1c(-c2cccnc2C(C)OC)c2c3cc(ccc31)N1CCOC(CC(NC(=O)C(C(C)C)N(C)C(=O)C3(F)CCN(C(=O)C#CC(C)(C)N(C)C)CC3)C(=O)N3CCCC(N3)C(=O)OCC(C)(C)C2)C1
IC50 (second compound 0.000949 µM): < 3.16 nM
IC50 (second compound 0.003 µM): < 3.16 nM
IC50 (second compound 0.00949 µM): < 3.16 nM
IC50 (second compound 0.03 µM): < 3.16 nM
IC50 (second compound 0.0949 µM): < 3.16 nM
IC50 (second compound 0.3 µM): < 3.16 nM
viability, T/C (second compound 0.000949 µM, first compound 0.00316 µM): 15.8%
viability, T/C (second compound 0.000949 µM, first compound 0.01 µM): 15.7%
viability, T/C [1]: 14.1%
viability, T/C [2]: 14.4%
viability, T/C [3]: 15.3%
viability, T/C [4]: 13.8%
viability, T/C (second compound 0.003 µM, first compound 0.00316 µM): 15.6%
viability, T/C (second compound 0.003 µM, first compound 0.01 µM): 15.7%
viability, T/C [7]: 13.5%
viability, T/C [8]: 14.8%
viability, T/C [9]: 15.6%
viability, T/C [10]: 11.7%
viability, T/C (second compound 0.00949 µM, first compound 0.00316 µM): 12.5%
viability, T/C (second compound 0.00949 µM, first compound 0.01 µM): 14.3%
viability, T/C [13]: 13.6%
viability, T/C [14]: 13.2%
viability, T/C [15]: 14.1%
viability, T/C [16]: 14.1%
viability, T/C (second compound 0.03 µM, first compound 0.00316 µM): 12.3%
viability, T/C (second compound 0.03 µM, first compound 0.01 µM): 13.7%
viability, T/C [19]: 13.8%
viability, T/C [20]: 15%
viability, T/C [21]: 14%
viability, T/C [22]: 13%
viability, T/C (second compound 0.0949 µM, first compound 0.00316 µM): 11.1%
viability, T/C (second compound 0.0949 µM, first compound 0.01 µM): 10.2%
viability, T/C [25]: 11.4%
viability, T/C [26]: 10.1%
viability, T/C [27]: 12.1%
viability, T/C [28]: 11.6%
viability, T/C (second compound 0.3 µM, first compound 0.00316 µM): 10.6%
viability, T/C (second compound 0.3 µM, first compound 0.01 µM): 11.3%
viability, T/C [31]: 9.37%
viability, T/C [32]: 9.44%
viability, T/C [33]: 9.59%
viability, T/C [34]: 10%
